Assay results published in PubChem BioAssay (NCI).
Several values for one entry are separate records, joined by “and”; a condition that tells them apart may be missing. Equal entries are not always repeated.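 Interpolation was linear, between the two tested concentrations surrounding the appropriate level; five concentrations were tested over 48 hours in 96-well plates. Abbreviation: GI50, concentration required for 50% inhibition of growth. TGI: concentration producing complete growth inhibition.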

Legend:
Test in all cases: NCI tumour cell line growth inhibition, 48 h
HT29 colon = tested on: HT29 colon
MALME-3M melanoma = tested on: MALME-3M melanoma
PC-3 prostate = tested on: PC-3 prostate
ACHN renal = tested on: ACHN renal
SW-620 colon = tested on: SW-620 colon
HOP-62 NSCLC = tested on: HOP-62 NSCLC
A549 NSCLC = tested on: A549 NSCLC
LOX IMVI melanoma = tested on: LOX IMVI melanoma
SN12C renal = tested on: SN12C renal
CCRF-CEM leukemia = tested on: CCRF-CEM leukemia

Compound | TGI (HT29 colon) | TGI (MALME-3M melanoma) | TGI (PC-3 prostate) | TGI (ACHN renal) | TGI (SW-620 colon) | TGI (HOP-62 NSCLC) | TGI (A549 NSCLC) | TGI (LOX IMVI melanoma) | TGI (SN12C renal) | TGI (CCRF-CEM leukemia) | GI50 (HT29 colon) | GI50 (MALME-3M melanoma) | GI50 (PC-3 prostate) | GI50 (ACHN renal) | GI50 (SW-620 colon) | GI50 (HOP-62 NSCLC) | GI50 (A549 NSCLC) | GI50 (LOX IMVI melanoma) | GI50 (SN12C renal) | GI50 (CCRF-CEM leukemia)
Nc1ncn(C2CC(O)C(CO)O2)c(=O)n1 (stereo not drawn) | > 375 µM | > 375 µM | > 204 µM | > 375 µM | 373 µM | > 319 µM | > 375 µM | > 375 µM | > 375 µM | > 261 µM | – | – | – | – | – | – | – | – | – | –
C/C=C(\C)CC/C=C/CO[Si](C)(C)C(C)(C)C | > 100 µM | > 100 µM | > 100 µM | > 100 µM | > 100 µM | > 100 µM | > 100 µM | 49.9 µM | > 100 µM | 49.6 µM | – | – | – | – | – | – | – | – | – | –
COc1cc2c3c(n(C)c(=O)c2cc1OC)-c1cc2c(cc1/C3=C\CNCCCN)OCO2 | > 100 µM | 0.591 µM | 3.16 µM | 2.07 µM | 3.94 µM | 10.9 µM | > 25.1 µM | 2.23 µM | 1.07 µM | 0.15 µM | 0.376 µM | 0.144 µM | 0.272 µM | 0.271 µM | 0.222 µM | 0.625 µM | 1.43 µM | 0.162 µM | 0.115 µM | 0.0239 µM
O=C(/C=C\n1cnc(-c2cc(C(F)(F)F)cc(C(F)(F)F)c2)n1)NNc1cnccn1 | 22.4 µM | 10.5 µM | 15.7 µM | 13 µM | 13.3 µM | 15.7 µM | 19 µM | 1.5 µM | 15.4 µM | > 100 µM | 0.131 µM | 0.135 µM | 0.128 µM | 0.113 µM | 0.0472 µM | 0.289 µM | 0.0785 µM | 0.0446 µM | 0.356 µM | 0.106 µM
CNc1nc(N)c(N=O)c(Nc2ccc(Br)cc2)n1 | > 100 µM | > 100 µM | > 100 µM | > 100 µM | > 100 µM | > 100 µM | > 100 µM | > 100 µM | > 100 µM | > 100 µM | – | – | – | – | – | – | – | – | – | –
COc1ccc(-c2nnc(COc3ccc(NC(=O)Nc4ccc(Cl)c(C(F)(F)F)c4)cc3F)o2)cc1 | 22.4 µM | 7.63 µM | 12.7 µM | 10.7 µM | 27.2 µM | 21.8 µM | 18.7 µM | > 100 µM | 56 µM | 40 µM | 3.57 µM | 2.72 µM | 1.84 µM | 2.55 µM | 3.42 µM | 5.07 µM | 3.25 µM | 2.93 µM | 3.8 µM | 3.06 µM
NCCCn1c2c(c3ccc([N+](=O)[O-])cc3c1=O)C(=O)c1cc(Br)ccc1-2 | 0.134 µM | – | 0.412 µM and 0.312 µM | 0.0477 µM | 0.132 µM | 0.171 µM and 0.388 µM | 0.245 µM | 0.109 µM and 0.0227 µM | 0.0566 µM | 0.0159 µM | 0.00556 µM | 0.103 µM | 0.101 µM and 0.0286 µM | 0.0187 µM | 0.00106 µM | 0.034 µM and 0.0329 µM | 0.0897 µM | 0.00683 µM | 0.0154 µM | 0.0033 µM
CN1C(=O)c2ccccc2NC(=O)C12O[C@@H]2c1cccc(O)c1 (stereo partly drawn) | > 100 µM | > 100 µM | > 100 µM | > 100 µM | > 100 µM | > 100 µM | > 100 µM | > 100 µM | > 100 µM | > 100 µM | – | – | – | – | – | – | – | – | – | –
CCN(CC)CCCC(C)Nc1cnc(C(=O)Nc2cccc3ccc(OC)nc23)cn1 (stereo not drawn) | 3.51 µM | 3.22 µM | 10.5 µM | 3.48 µM | 3.43 µM | 3.71 µM | 7.02 µM | 3.34 µM | 3.72 µM | 8.11 µM | 1.78 µM | 1.75 µM | 2.83 µM | 1.83 µM | 1.78 µM | 1.83 µM | 2.6 µM | 1.77 µM | 1.77 µM | 2.74 µM
COC(=O)C12C3C4C1C1C2C3C41NC(=O)c1csc([C@@H](C[C@H](C(C)C)N(C)C(=O)[C@@H](NC(=O)[C@H]2CCCCN2C)C2CC2)OC(C)=O)n1 (stereo partly drawn) | > 33.3 µM | > 33.3 µM | > 33.3 µM | > 33.3 µM | > 33.3 µM | > 33.3 µM | > 33.3 µM | > 33.3 µM | > 33.3 µM | > 33.3 µM | 0.00658 µM | 0.0581 µM | 0.0482 µM | 0.0903 µM | 0.00746 µM | 0.048 µM | 0.157 µM | 0.00882 µM | 0.0242 µM | 0.00732 µM
CS(=O)(=O)c1cc(=O)c2ccccc2s1 | 16.2 µM | 3.5 µM | 33.4 µM | 5.68 µM | 3.4 µM | 41.3 µM | 35.7 µM | 17.6 µM | 22.2 µM | 3.93 µM | – | – | – | – | – | – | – | – | – | –
N#Cc1cccc(NC(=O)c2cc(-c3ccc(F)cc3F)ccc2O)c1 | 37.3 µM | 5.48 µM | 9.88 µM | 7.89 µM | 22.3 µM | 11 µM | 28.4 µM | 6.58 µM | 8.32 µM | 47.7 µM | 4.73 µM | 1.44 µM | 2.88 µM | 2.56 µM | 3.02 µM | 2.97 µM | 3.09 µM | 2.45 µM | 2.1 µM | 3.07 µM
CSc1nc2cc(S(=O)(=O)N3CCCCC3)ccc2s1 | > 100 µM | > 100 µM | > 100 µM | > 100 µM | > 100 µM | > 100 µM | > 100 µM | > 100 µM | > 100 µM | > 100 µM | – | – | – | – | – | – | – | – | – | –
Nc1nc(-c2cccc(Cl)c2)c(-c2ccc3ncccc3n2)s1 | > 25 µM | > 25 µM | > 25 µM | > 25 µM | > 25 µM | > 25 µM | > 25 µM | > 25 µM | > 25 µM | > 25 µM | > 25 µM | > 25 µM | > 25 µM | > 25 µM | > 25 µM | > 25 µM | > 25 µM | > 25 µM | > 25 µM | > 25 µM
Cc1ccc2c(c1)CN(C(=O)CCC(=O)OCc1ccccc1)c1ccc(C)cc1CN2C(=O)CCC(=O)OCc1ccccc1 | > 100 µM | > 100 µM | > 100 µM | > 100 µM | > 100 µM | > 100 µM | > 100 µM | > 100 µM | > 100 µM | > 100 µM | – | – | – | – | – | – | – | – | – | –
O=c1[nH]c(=O)n(C2OC(CO)C(O)C(O)C2O)cc1F (stereo not drawn) | > 100 µM | > 100 µM | > 100 µM | > 100 µM | > 100 µM | > 100 µM | > 100 µM | > 100 µM | > 100 µM | > 100 µM | – | – | – | – | – | – | – | – | – | –
CCCCN1CSC(=S)N(Cc2ccccc2)C1 | > 100 µM | > 93.5 µM | > 100 µM | > 100 µM | > 100 µM | > 100 µM | > 100 µM | > 100 µM | > 100 µM | 32.9 µM | – | – | – | – | – | – | – | – | – | –
COc1ccc(OC)c(C(=O)c2oc3ccc(Br)cc3c2N)c1 | 10.7 µM | 46.8 µM | > 51 µM | > 65.1 µM | > 66.8 µM | > 50.6 µM | > 54.6 µM | 22.4 µM | 29.3 µM | 24.1 µM | 0.326 µM | 0.339 µM | 0.58 µM | 0.627 µM | 0.332 µM | 0.49 µM | 0.493 µM | 0.581 µM | 0.648 µM | 0.332 µM
O=C(O)[C@@H]1CCCCN1Cc1cc2cc3c(cc2c2cc(OCc4ccccc4)ccc12)OCO3 | 15.8 µM | 9.41 µM | 38.3 µM | 10.3 µM | 13.8 µM | 31.6 µM | 15.1 µM | 3.56 µM | 7.8 µM | > 100 µM | 3.24 µM | 2.8 µM | 16.4 µM | 2.73 µM | 1.84 µM | 16.1 µM | 3.74 µM | 1.75 µM | 2 µM | 14.9 µM
CC(C)(C)c1ccc(O)c(CN(Cc2cc(C(C)(C)C)ccc2O)c2ccccc2)c1 | 35.3 µM | 29.9 µM | 42.1 µM | 35.5 µM | 37.6 µM | 47.6 µM | 35.9 µM | 26.8 µM | 32.1 µM | > 100 µM | – | – | – | – | – | – | – | – | – | –
CC(C)(C)c1cc(NC(=O)Cc2ccc(-c3cnc4cc(-c5cnn(CCN6CCOCC6)c5)ccc4n3)cc2)no1 | 50 µM and > 100 µM and > 3 µM | 11.3 µM and 2.82 µM | 50 µM and > 100 µM and > 3 µM | 50 µM and > 100 µM and > 3 µM | 9.2 µM and 67.1 µM and > 1.25 µM | 50 µM and > 100 µM and > 3 µM | 50 µM and > 100 µM and > 3 µM | 50 µM and > 100 µM and > 3 µM | 50 µM and > 100 µM and > 3 µM | 22.8 µM and > 100 µM and > 3 µM | 0.613 µM and 1.06 µM and 0.116 µM | 0.187 µM and 0.278 µM and 0.0505 µM | 0.481 µM and 1.02 µM and 0.135 µM | 0.151 µM and 0.302 µM and 0.0394 µM | 0.22 µM and 0.414 µM and 0.0878 µM | – | 0.335 µM and 0.506 µM and 0.108 µM | 0.248 µM and 0.416 µM and 0.0821 µM | 0.243 µM and 0.348 µM and 0.0645 µM | 0.163 µM and 0.388 µM and 0.107 µM
Cc1ccc2[nH]c(C(=O)NN3C(=O)C(C)SC34CCCC(C)C4)c(-c3ccccc3)c2c1 (stereo not drawn) | > 100 µM | > 100 µM | > 100 µM | > 100 µM | > 100 µM | > 100 µM | > 100 µM | > 100 µM | > 100 µM | > 100 µM | 33.9 µM | 69 µM | 55.1 µM | > 100 µM | > 100 µM | > 100 µM | 30.9 µM | > 100 µM | 23.5 µM | 74.1 µM
CC[C@H](C)[C@H]1O[C@]2(C=C[C@@H]1C)C[C@@H]1C[C@@H](C/C=C(\C)[C@@H](O[C@H]3C[C@H](OC)[C@@H](O[C@H]4C[C@H](OC)[C@@H](NC)[C@H](C)O4)[C@H](C)O3)[C@@H](C)/C=C/C=C3\CO[C@@H]4[C@H](O)C(C)=C[C@@H](C(=O)O1)[C@]34O)O2 | 4.14 µM | 3.69 µM | 11.7 µM | 10.8 µM | 4.74 µM | 4 µM | 6.38 µM | 3.13 µM | 11.3 µM | 4.02 µM | 1.88 µM | 1.85 µM | 2.78 µM | 2.73 µM | 2.14 µM | 1.75 µM | 2.01 µM | 1.68 µM | 3.04 µM | 1.87 µM
